ChEMBL document CHEMBL1201862, “PubChem BioAssay data set” (2004)
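Cells were grown in 96-well plates and exposed to each compound for 48 hours at five concentrations; endpoints were interpolated linearly between bracketing concentrations, or set to the highest concentration if not reached. Here, GI50 denotes the concentration required for 50% inhibition of growth.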 Calls of active or inactive are those of the source. No stated cut-off is given here; in the data, active = GI50 up to about 1.1 µM and inactive = higher.

Key:
Assay in all cases: NCI anticancer screen, dose series, 48 h
CCRF-CEM = tested on: CCRF-CEM
EKVX = tested on: EKVX
HOP-62 = tested on: HOP-62
HOP-92 = tested on: HOP-92
Hs-578T = tested on: Hs-578T
LOX IMVI = tested on: LOX IMVI
M14 = tested on: M14
NCI-H226 = tested on: NCI-H226
OVCAR-3 = tested on: OVCAR-3
OVCAR-5 = tested on: OVCAR-5
SF-268 = tested on: SF-268
SK-OV-3 = tested on: SK-OV-3
SN12C = tested on: SN12C
U-251 = tested on: U-251
UACC-257 = tested on: UACC-257
HT-29 = tested on: HT-29
NCI-H522 = tested on: NCI-H522
RPMI-8226 = tested on: RPMI-8226
SR = tested on: SR

Measured: GI50

CC1(C)C(CCO)CC1n1ccc(=O)[nH]c1=O (stereo not given)
inactive: CCRF-CEM > 100 µM | EKVX > 100 µM | HOP-62 > 100 µM | HOP-92 > 100 µM | Hs-578T > 100 µM | LOX IMVI > 100 µM | M14 > 100 µM | NCI-H226 > 100 µM | OVCAR-3 > 100 µM | OVCAR-5 > 100 µM | SF-268 > 100 µM | SK-OV-3 > 100 µM | SN12C > 100 µM | U-251 > 100 µM | UACC-257 > 100 µM

CC1OC2=N[C@@H]1C(=O)N[C@@H](C(C)C)C1=N[C@H](C(=O)N[C@@H](C(C)C)C3=N[C@H](C(=O)N[C@@H](C(C)C)C4=N[C@H](C(=O)N[C@H]2C(C)C)C(C)O4)C(C)O3)C(C)O1 (stereo not given in full)
inactive: CCRF-CEM > 10 µM | EKVX > 10 µM | HOP-62 > 10 µM | HOP-92 > 10 µM | HT-29 > 10 µM | Hs-578T > 10 µM | LOX IMVI > 10 µM | M14 > 10 µM | NCI-H226 > 10 µM | NCI-H522 > 10 µM | OVCAR-3 > 10 µM | OVCAR-5 > 10 µM | RPMI-8226 > 10 µM | SF-268 > 10 µM | SK-OV-3 > 10 µM | SN12C > 10 µM | SR > 10 µM | U-251 > 10 µM | UACC-257 > 10 µM

Brc1ccc(-c2cc(-c3ccc4c(c3)OCO4)c(-c3cccs3)n2Cc2ccccc2)cc1
inactive: CCRF-CEM > 100 µM | EKVX > 100 µM | HOP-62 > 100 µM | HT-29 > 100 µM | Hs-578T > 100 µM | M14 > 100 µM | RPMI-8226 > 100 µM | SF-268 > 100 µM | SK-OV-3 > 100 µM | SN12C > 100 µM | SR > 100 µM | U-251 > 100 µM | UACC-257 > 100 µM

COC1(OC)C2(Cl)C(Cl)=C(Cl)C1(Cl)C1C=CC=CC12 (stereo not given)
inactive: CCRF-CEM > 10 µM | EKVX > 100 µM | HOP-62 > 100 µM | HOP-92 40.2 µM | HT-29 47.8 µM | LOX IMVI 40.2 µM | M14 57.5 µM | NCI-H226 > 100 µM | NCI-H522 23.8 µM | OVCAR-3 > 100 µM | OVCAR-5 > 100 µM | RPMI-8226 39.7 µM | SF-268 > 100 µM | SK-OV-3 > 100 µM | SN12C 75.3 µM | SR > 100 µM | U-251 > 100 µM | UACC-257 > 100 µM

CN1C(=O)C2C3C=C4c5ccccc5N(c5ccccc5)C4(C2C1=O)[C@H]1C(=O)N(C)C(=O)[C@@H]31 (stereo not given in full)
inactive: CCRF-CEM > 100 µM | EKVX > 100 µM | HOP-62 > 100 µM | HOP-92 > 100 µM | HT-29 > 100 µM | LOX IMVI > 100 µM | M14 > 100 µM | NCI-H226 > 100 µM | NCI-H522 > 100 µM | OVCAR-3 > 100 µM | OVCAR-5 > 100 µM | RPMI-8226 > 100 µM | SF-268 > 100 µM | SK-OV-3 > 100 µM | SN12C > 100 µM | SR > 100 µM | U-251 > 100 µM | UACC-257 > 100 µM

C[C@H](c1ccccc1)N1C(=O)[C@@H](O)[C@H]1[C@H](CO)OCc1ccccc1
inactive: CCRF-CEM > 100 µM | EKVX > 100 µM | HOP-62 > 100 µM | HOP-92 96.4 µM | HT-29 > 100 µM | Hs-578T > 100 µM | LOX IMVI > 100 µM | M14 > 100 µM | NCI-H226 > 100 µM | OVCAR-3 > 100 µM | OVCAR-5 > 100 µM | RPMI-8226 > 100 µM | SF-268 > 100 µM | SK-OV-3 > 100 µM | SN12C > 100 µM | SR > 100 µM | U-251 > 100 µM | UACC-257 > 100 µM

CN(C)/C=N/c1ccc2nonc2c1
inactive: CCRF-CEM > 100 µM | EKVX > 100 µM | HOP-62 > 100 µM | HT-29 > 100 µM | Hs-578T > 100 µM | M14 > 100 µM | NCI-H226 > 100 µM | NCI-H522 > 100 µM | OVCAR-3 > 100 µM | OVCAR-5 > 100 µM | RPMI-8226 > 100 µM | SF-268 > 100 µM | SK-OV-3 > 100 µM | SN12C > 100 µM | SR > 100 µM | UACC-257 > 100 µM

Cc1cc2c(cc1Cl)SC(c1ccccc1)C(=O)NS2(=O)=O (stereo not given)
inactive: CCRF-CEM 47.4 µM | EKVX 70.1 µM | HOP-62 44.3 µM | HOP-92 30.5 µM | HT-29 32 µM | Hs-578T 27.5 µM | LOX IMVI 31.6 µM | M14 39 µM | NCI-H226 36.3 µM | NCI-H522 25.9 µM | OVCAR-3 21.6 µM | OVCAR-5 45.9 µM | RPMI-8226 34 µM | SF-268 33.3 µM | SK-OV-3 31.9 µM | SR 27.5 µM | U-251 23.1 µM | UACC-257 28.2 µM
